Patent US20080318909A1, “Use Of Linoleic Compounds Against Heart Failure” (priority 2007, published 2008)

Legend:
SHHF rats = test: Long-term diet study in SHHF rats (fifteen to twenty-one months of age); type: in vivo, rat
Description: Experiments were performed to determine whether the amount of (18:2)4CL in vivo may be altered with diet and, if so, whether this capability may be used to influence the time course of heart failure in SHHF rats. The two diets studied were a linoleic acid-rich safflower oil diet and a diet supplemented with lard.
Lean male SHHF rats aged eight weeks and fifteen months were used in the studies. […] The progression toward heart failure in SHHF rats shares a wide variety of marked similarities to the progression toward heart failure in humans.
To study the normal timecourse of HF, male SHHF rats were placed on special diets for six months, from fifteen to twenty-one months of age. This timecourse was chosen, because fifteen months is the time when SHHF rats start to progress from hypertension to HF. By twenty-one months most controls should be showing signs of overt HF.

[1] = system: fibroblasts from Barth Syndrome patients; details: fibroblasts supplemented with 18:2; cited from earlier work
PPARβ = test: PPAR binding in LVs of twenty month old SHHF rats on linoleic acid supplement; type: in vivo, rat; details: FIG. 13
Excerpt: Peroxisome Proliferator-Activated Receptors: Peroxisome proliferator-activated receptors (PPARs) are a family of nuclear transcription factors comprised of PPARα, PPARγ, and PPARβ (also called PPARδ). […] Alteration in PPAR isoform levels results in CL changes, and it is well established that the natural activator for PPARs are polyunsaturated fatty acids, such as 18:2. […] PPARβ is currently believed to be the most pharmacologically promising of the three isoforms. Linoleic acid supplementation results in an increase in PPARβ binding, FIG. 13.

TAB rats = test: SC-26196 fed in chow to TAB rats with induced heart failure; type: in vivo, rat
Excerpt: Δ5 Desaturase and Δ6 Desaturase: Δ6 desaturase mRNA increases with heart failure in SHHF rats (FIG. 11). The Δ5 desaturase and Δ6 desaturase inhibitor SC-26196 (Pfizer) was fed to TAB rats in which heart failure was induced three weeks after TAB. The rats were allowed to reach a pre-failure state for a week and then the drug, SC-26196, was given in the chow for two weeks. […] Use of the Δ5 desaturase and Δ6 desaturase inhibitor, SC-26196, improved the heart function of SHHF rats and caused an increase in linoleic acid and a decrease in arachidonic acid levels in the heart.
Rapid induction of HF was studied using eight week old male SHHF rats maintained on a control (Purina 5001) diet since weaning from their mothers. Rapid HF is induced by transaortic banding (TAB) accompanied by a high salt diet for four weeks (TAB/HS). Rats are used for experiments four weeks following TAB/HS treatment.

SMILES	left ventricular dimension (SHHF rats; 18:2 supplementation)	systolic function (SHHF rats; 18:2 supplementation)	survivability / survival of SHHF rats (SHHF rats; compared to lard supplemented or standard chow diets, FIG. 7)	amount of (18:2)4CL [1]	PPARβ binding (PPARβ)	arachidonic acid levels in the heart (TAB rats; SHHF rats)	linoleic acid levels in the heart (TAB rats; SHHF rats)	survivability of SHHF rats (TAB rats; given in the chow)	production of arachidonic acid from linoleic acid (TAB rats; given in the chow for two weeks)	cardiac function (fractional shortening) (TAB rats; given in the chow for two weeks, FIG. 12A)	level of (18:2)4CL (TAB rats; given in the chow for two weeks, FIG. 12B)
CCCCC/C=C\C/C=C\CCCCCCCC(=O)O [Linoleic acid, linoleic acid]	Trends for improvement	Trends for improvement	significant increase	increased	increase						
N#CC(CCCN1CCN(/N=C/c2cccnc2)CC1)(c1ccccc1)c1ccccc1 [SC-26196]						decrease	increase	improved	effectively blocked	improved	increased
